Measured values: patent US11759455B2, “Substituted 1H-imidazo[4,5-b]pyridin-2(3H)-ones and their use as GLUN2B receptor modulators” (JANSSEN PHARMACEUTICA NV, priority 2016, dated 2023)

Target: T1, human GluN1/GluN2B NMDA receptors (Homo sapiens, UniProt Q13224)
T1 construct: expressed in transfected cells
Experiment: Cell-based calcium flux (FLIPR) assay on cloned human NR1/NR2B ion channels expressed in mammalian cells (standard and HTS buffer variants);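 also: stable Tet-On inducible cell line, Ca2+ influx triggered by glutamate at about EC40 plus 10 µM glycine, fluorescent dye read-out over 5 min, normalized to control wells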
Conditions: standard assay buffer (0.5 mM MgCl2 in dye loading buffer; 137 mM NaCl, 4 mM KCl in assay buffer), human GluN1/GluN2B, read-out: NR2B IC50 (μM) standard assay

T1 sequence (Q13224 27-1484, other chains not shown): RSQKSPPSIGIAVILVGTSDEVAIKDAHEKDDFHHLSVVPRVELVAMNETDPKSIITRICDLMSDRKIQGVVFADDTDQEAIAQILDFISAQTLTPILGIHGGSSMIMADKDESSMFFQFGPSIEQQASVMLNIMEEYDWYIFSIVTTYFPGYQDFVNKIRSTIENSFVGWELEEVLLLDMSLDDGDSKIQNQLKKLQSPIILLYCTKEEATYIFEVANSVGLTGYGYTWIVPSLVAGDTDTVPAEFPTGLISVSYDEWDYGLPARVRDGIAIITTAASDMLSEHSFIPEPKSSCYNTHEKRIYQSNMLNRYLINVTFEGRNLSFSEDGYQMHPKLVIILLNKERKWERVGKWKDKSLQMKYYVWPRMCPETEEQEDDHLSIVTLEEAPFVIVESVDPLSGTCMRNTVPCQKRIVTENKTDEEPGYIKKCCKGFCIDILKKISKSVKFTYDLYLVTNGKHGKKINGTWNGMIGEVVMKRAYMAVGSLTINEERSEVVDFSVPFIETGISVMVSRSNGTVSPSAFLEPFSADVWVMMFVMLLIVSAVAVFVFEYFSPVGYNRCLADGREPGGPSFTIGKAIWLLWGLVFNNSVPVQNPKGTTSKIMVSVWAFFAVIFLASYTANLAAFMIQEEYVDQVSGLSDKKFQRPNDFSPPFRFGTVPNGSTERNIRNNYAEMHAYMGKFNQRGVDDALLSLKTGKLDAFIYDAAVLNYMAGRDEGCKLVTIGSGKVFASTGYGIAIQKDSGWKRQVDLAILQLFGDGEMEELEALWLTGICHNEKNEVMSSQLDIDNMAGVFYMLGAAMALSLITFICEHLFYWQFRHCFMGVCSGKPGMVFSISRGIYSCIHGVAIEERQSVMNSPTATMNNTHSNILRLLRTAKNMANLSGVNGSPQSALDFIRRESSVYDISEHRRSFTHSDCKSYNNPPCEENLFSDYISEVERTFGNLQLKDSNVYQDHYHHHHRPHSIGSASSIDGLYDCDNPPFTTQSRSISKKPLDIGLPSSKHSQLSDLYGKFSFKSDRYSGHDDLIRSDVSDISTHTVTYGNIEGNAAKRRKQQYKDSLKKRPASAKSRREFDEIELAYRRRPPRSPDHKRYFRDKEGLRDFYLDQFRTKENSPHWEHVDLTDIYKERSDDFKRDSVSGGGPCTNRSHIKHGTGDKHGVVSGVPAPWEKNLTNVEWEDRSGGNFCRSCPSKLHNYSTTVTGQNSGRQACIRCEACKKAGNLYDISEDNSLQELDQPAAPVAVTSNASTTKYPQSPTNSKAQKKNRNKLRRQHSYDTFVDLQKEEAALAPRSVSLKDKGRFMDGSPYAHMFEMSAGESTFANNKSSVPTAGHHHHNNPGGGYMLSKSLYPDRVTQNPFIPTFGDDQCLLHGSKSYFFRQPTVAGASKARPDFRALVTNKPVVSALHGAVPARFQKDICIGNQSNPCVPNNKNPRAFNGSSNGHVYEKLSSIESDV

| Compound | IC50 [µM] |
| --- | --- |
| Cn1c(=O)n(Cc2cccnc2)c2cc(-c3ccc(F)c(Cl)c3)cnc21 [Example 355, 6-(3-Chloro-4-fluoro-phenyl)-3-methyl-1-(3-pyridylmethyl)imidazo[4,5-b]pyridin-2-one] | 0.044 |
| Cn1c(=O)n(Cc2cccnc2)c2cc(-c3ccc(F)c(C(F)(F)F)c3)cnc21 [Example 360, 6-[4-Fluoro-3-(trifluoromethyl)phenyl]-3-methyl-1-(3-pyridylmethyl)imidazo[4,5-b]pyridin-2-one] | 0.034 |
| Cn1c(=O)n(Cc2cccnc2)c2cc(-c3cccc(C(F)(F)F)c3)cnc21 [Example 362, 3-Methyl-1-(3-pyridylmethyl)-6-[3-(trifluoromethyl)phenyl]imidazo[4,5-b]pyridin-2-one] | 0.105 |
| Cn1c(=O)n(Cc2cncc(Cl)c2)c2cc(-c3cccc(C(F)(F)F)c3)cnc21 [Example 366, 1-[(5-Chloro-3-pyridyl)methyl]-3-methyl-6-[3-(trifluoromethyl)phenyl]imidazo[4,5-b]pyridin-2-one] | 0.433 |
| Cc1c(F)ccc(-c2cnc3c(c2)n(Cc2cncc(Cl)c2)c(=O)n3C)c1F [Example 368, 1-[(5-Chloro-3-pyridyl)methyl]-6-(2,4-difluoro-3-methyl-phenyl)-3-methyl-imidazo[4,5-b]pyridin-2-one] | 0.356 |
| Cn1c(=O)n(Cc2cncc(Cl)c2)c2cc(-c3ccc(F)c(F)c3)cnc21 [Example 369, 1-[(5-Chloro-3-pyridyl)methyl]-6-(3,4-difluorophenyl)-3-methyl-imidazo[4,5-b]pyridin-2-one] | 0.096 |
| Cc1cccc(-c2cnc3c(c2)n(Cc2cncc(Cl)c2)c(=O)n3C)c1F [Example 371, 1-[(5-Chloro-3-pyridyl)methyl]-6-(2-fluoro-3-methyl-phenyl)-3-methyl-imidazo[4,5-b]pyridin-2-one] | 0.19 |
| Cn1c(=O)n(Cc2cncc(Cl)c2)c2cc(-c3ccc(C(F)(F)F)s3)cnc21 [Example 373, 1-[(5-Chloro-3-pyridyl)methyl]-3-methyl-6-[5-(trifluoromethyl)-2-thienyl]imidazo[4,5-b]pyridin-2-one] | 9.72 |
| Cc1cccc(-c2cnc3c(c2)n(Cc2cncc(Cl)c2)c(=O)n3C)c1 [Example 374, 1-[(5-Chloro-3-pyridyl)methyl]-3-methyl-6-(m-tolyl)imidazo[4,5-b]pyridin-2-one] | 0.416 |
| Cn1c(=O)n(Cc2cccnn2)c2cc(-c3cccc(Cl)c3)cnc21 [Example 376, 6-(3-Chlorophenyl)-3-methyl-1-(pyridazin-3-ylmethyl)imidazo[4,5-b]pyridin-2-one] | 0.056 |
| Cn1c(=O)n(Cc2cccnn2)c2cc(-c3ccc(F)c(Cl)c3)cnc21 [Example 380, 6-(3-Chloro-4-fluoro-phenyl)-3-methyl-1-(pyridazin-3-ylmethyl)imidazo[4,5-b]pyridin-2-one] | 0.016 |
| Cn1c(=O)n(Cc2cccnn2)c2cc(-c3ccc(F)c(C(F)(F)F)c3)cnc21 [Example 382, 6-[4-Fluoro-3-(trifluoromethyl)phenyl]-3-methyl-1-(pyridazin-3-ylmethyl)imidazo[4,5-b]pyridin-2-one] | 0.016 |
| Cn1c(=O)n(Cc2cccnn2)c2cc(-c3cc(F)cc(C(F)(F)F)c3)cnc21 [Example 383, 6-[3-Fluoro-5-(trifluoromethyl)phenyl]-3-methyl-1-(pyridazin-3-ylmethyl)imidazo[4,5-b]pyridin-2-one] | 0.041 |
| Cn1c(=O)n(Cc2cccnn2)c2cc(-c3cc(F)c(F)c(C(F)(F)F)c3)cnc21 [Example 387, 6-[3,4-Difluoro-5-(trifluoromethyl)phenyl]-3-methyl-1-(pyridazin-3-ylmethyl)imidazo[4,5-b]pyridin-2-one] | 0.022 |
| CCC(=O)Cn1c(=O)n(C)c2ncc(-c3ccc(F)c(C)c3)cc21 [Example 389, 6-(4-Fluoro-3-methyl-phenyl)-3-methyl-1-(2-oxobutyl)imidazo[4,5-b]pyridin-2-one] | 0.017 |
| CCC(=O)Cn1c(=O)n(C)c2ncc(-c3ccc(F)c(F)c3)cc21 [Example 390, 6-(3,4-Difluorophenyl)-3-methyl-1-(2-oxobutyl)imidazo[4,5-b]pyridin-2-one] | 0.019 |
| CCC(=O)Cn1c(=O)n(C)c2ncc(-c3ccc(F)c(C)c3F)cc21 [Example 391, 6-(2,4-Difluoro-3-methyl-phenyl)-3-methyl-1-(2-oxobutyl)imidazo[4,5-b]pyridin-2-one] | 0.026 |
| CCC(=O)Cn1c(=O)n(C)c2ncc(-c3cccc(C4CC4)c3)cc21 [Example 392, 6-(3-Cyclopropylphenyl)-3-methyl-1-(2-oxobutyl)imidazo[4,5-b]pyridin-2-one] | 0.324 |
| Cc1c(F)ccc(-c2cnc3c(c2)n(CC(=O)N2CC(F)C2)c(=O)n3C)c1F [Example 400, 6-(2,4-Difluoro-3-methyl-phenyl)-1-[2-(3-fluoroazetidin-1-yl)-2-oxo-ethyl]-3-methyl-imidazo[4,5-b]pyridin-2-one] | 0.017 |

The remaining compounds from weak to strong by IC50, led by results:

| IC50 [µM] | Compound |
| --- | --- |
| 6.64 | Cc1cc(-c2cnc3c(c2)n(Cc2cncc(Cl)c2)c(=O)n3C)sc1Cl [Example 372, 6-(5-Chloro-4-methyl-2-thienyl)-1-[(5-chloro-3-pyridyl)methyl]-3-methyl-imidazo[4,5-b]pyridin-2-one] |
| 1.54 | Cn1c(=O)n(Cc2cccnc2)c2cc(-c3ccc(F)c(F)c3F)cnc21 [Example 361, 3-Methyl-1-(3-pyridylmethyl)-6-(2,3,4-trifluorophenyl)imidazo[4,5-b]pyridin-2-one] |
| 1.51 | Cn1c(=O)n(Cc2cncc(Cl)c2)c2cc(-c3cccc(F)c3F)cnc21 [Example 375, 1-[(5-Chloro-3-pyridyl)methyl]-6-(2,3-difluorophenyl)-3-methyl-imidazo[4,5-b]pyridin-2-one] |
| 1.11 | Cn1c(=O)n(Cc2cccnc2)c2cc(-c3cc(C(F)F)ccc3F)cnc21 [Example 386, 6-(5-(Difluoromethyl)-2-fluorophenyl)-3-methyl-1-(pyridin-3-ylmethyl)-1,3-dihydro-2H-imidazo[4,5-b]pyridin-2-one] |
| 0.653 | Cn1c(=O)n(Cc2cccnn2)c2cc(-c3cc(C(F)F)ccc3F)cnc21 [Example 385, 6-(5-(Difluoromethyl)-2-fluorophenyl)-3-methyl-1-(pyridazin-3-ylmethyl)-1,3-dihydro-2H-imidazo[4,5-b]pyridin-2-one] |
| 0.206 | Cn1c(=O)n(Cc2cccnn2)c2cc(-c3ccc(Cl)c(C(F)(F)F)c3)cnc21 [Example 384, 6-[4-Chloro-3-(trifluoromethyl)phenyl]-3-methyl-1-(pyridazin-3-ylmethyl)imidazo[4,5-b]pyridin-2-one] |
| 0.168 | Cn1c(=O)n(Cc2cccnc2)c2cc(-c3ccc(C(F)(F)F)s3)cnc21 [Example 364, 3-Methyl-1-(3-pyridylmethyl)-6-[5-(trifluoromethyl)-2-thienyl]imidazo[4,5-b]pyridin-2-one] |
| 0.131 | Cn1c(=O)n(Cc2cncc(Cl)c2)c2cc(-c3cc(F)c(F)c(F)c3)cnc21 [Example 370, 1-[(5-Chloro-3-pyridyl)methyl]-3-methyl-6-(3,4,5-trifluorophenyl)imidazo[4,5-b]pyridin-2-one] |
| 0.118 | Cc1cccc(-c2cnc3c(c2)n(Cc2cccnc2)c(=O)n3C)c1F [Example 357, 6-(2-Fluoro-3-methyl-phenyl)-3-methyl-1-(3-pyridylmethyl)imidazo[4,5-b]pyridin-2-one] |
| 0.117 | Cc1cc(-c2cnc3c(c2)n(Cc2cncc(Cl)c2)c(=O)n3C)ccc1F [Example 367, 1-[(5-Chloro-3-pyridyl)methyl]-6-(4-fluoro-3-methyl-phenyl)-3-methyl-imidazo[4,5-b]pyridin-2-one] |
| 0.096 | Cn1c(=O)n(Cc2cccnc2)c2cc(-c3cccc(Cl)c3F)cnc21 [Example 359, 6-(3-Chloro-2-fluoro-phenyl)-3-methyl-1-(3-pyridylmethyl)imidazo[4,5-b]pyridin-2-one] |
| 0.07 | Cc1cccc(-c2cnc3c(c2)n(Cc2cccnc2)c(=O)n3C)c1 [Example 356, 3-Methyl-6-(m-tolyl)-1-(3-pyridylmethyl)imidazo[4,5-b]pyridin-2-one] |
| 0.063 | Cc1cc(-c2cnc3c(c2)n(Cc2cccnc2)c(=O)n3C)sc1Cl [Example 365, 6-(5-Chloro-4-methyl-2-thienyl)-3-methyl-1-(3-pyridylmethyl)imidazo[4,5-b]pyridin-2-one] |
| 0.053 | Cn1c(=O)n(Cc2cccnc2)c2cc(-c3cccc(C(F)F)c3)cnc21 [Example 363, 6-[3-(Difluoromethyl)phenyl]-3-methyl-1-(3-pyridylmethyl)imidazo[4,5-b]pyridin-2-one] |
| 0.05 | CCC(=O)Cn1c(=O)n(C)c2ncc(-c3cccc(C(F)(F)F)c3)cc21 [Example 388, 3-Methyl-1-(2-oxobutyl)-6-[3-(trifluoromethyl)phenyl]imidazo[4,5-b]pyridin-2-one] |
| 0.049 | Cn1c(=O)n(Cc2cccnc2)c2cc(-c3cccc(C(F)(F)F)c3F)cnc21 [Example 358, 6-[2-Fluoro-3-(trifluoromethyl)phenyl]-3-methyl-1-(3-pyridylmethyl)imidazo[4,5-b]pyridin-2-one] |
| 0.037 | Cc1cc(F)cc(-c2cnc3c(c2)n(Cc2cccnn2)c(=O)n3C)c1 [Example 381, 6-(3-Fluoro-5-methyl-phenyl)-3-methyl-1-(pyridazin-3-ylmethyl)imidazo[4,5-b]pyridin-2-one] |
| 0.033 | Cc1cccc(-c2cnc3c(c2)n(Cc2cccnn2)c(=O)n3C)c1 [Example 379, 3-Methyl-6-(m-tolyl)-1-(pyridazin-3-ylmethyl)imidazo[4,5-b]pyridin-2-one] |
| 0.031 | Cn1c(=O)n(Cc2cccnn2)c2cc(-c3cccc(C(F)(F)F)c3)cnc21 [Example 378, 3-Methyl-1-(pyridazin-3-ylmethyl)-6-[3-(trifluoromethyl)phenyl]imidazo[4,5-b]pyridin-2-one] |
| 0.03 | Cn1c(=O)n(Cc2cccnn2)c2cc(-c3cccc(C(F)F)c3)cnc21 [Example 377, 6-[3-(Difluoromethyl)phenyl]-3-methyl-1-(pyridazin-3-ylmethyl)imidazo[4,5-b]pyridin-2-one] |
